Test results as given in patent US20260015350A1, “AZAQUINAZOLINE PAN-KRAS INHIBITORS” (Mirati Therapeutics, Inc., priority 2022, published 2026).

Columns and labels:
[1] = tested on: KRas-mediated phosphorylation of ERK in H727 cells; test: Inhibition of KRas-mediated phosphorylation of ERK (Cisbio HTRF pERK), H727 cells; assay type: cell-based; conditions: Homo sapiens, NCI-H727, H727 cells; HTRF pERK
How it was run: (§1)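 Following a 3-hr exposure of cells to serially diluted compound (from 10 uM, 3-fold, 10 doses), cold lysis for 40 mins preceded a 2-hr room-temperature HTRF immunoassay for phosphorylated ERK.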

[2] = tested on: KRas-mediated phosphorylation of ERK in H460 cells; test: Inhibition of KRas-mediated phosphorylation of ERK (Cisbio HTRF pERK), H460 cells; assay type: cell-based; conditions: Homo sapiens; for inhibition at 0.1 µM: NCI-H460, 3 h, single point, 100 nM compound, 3 hrs; for IC50: NCI-H460, HTRF pERK
How it was run: as §1

KRas^G12A = target: T1, KRas^G12A (Homo sapiens, UniProt P01116, G12A); test: KRas binding assay (TR-FRET tracer displacement), KRas G12A; conditions: for IC50: TR-FRET tracer displacement, KRas G12A; for inhibition at 0.01 µM: single point, 10 nM compound, TR-FRET
T1 construct: Biotinylated KRas (corresponding to amino acids 1-169, produced at Accelegan Inc.); biotin (biotinylated); purchased Accelegan Inc
T1 sequence (P01116 1-169 isoform P01116-2 G12A): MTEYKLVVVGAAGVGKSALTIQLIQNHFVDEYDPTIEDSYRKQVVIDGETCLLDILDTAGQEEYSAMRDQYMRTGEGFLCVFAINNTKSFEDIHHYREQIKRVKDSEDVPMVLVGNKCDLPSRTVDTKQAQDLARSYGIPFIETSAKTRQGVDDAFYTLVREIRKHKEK

KRas^G12D = target: T2, KRas^G12D (Homo sapiens, UniProt P01116, G12D); test: KRas binding assay (TR-FRET tracer displacement), KRas G12D
T2 construct: Biotinylated KRas (corresponding to amino acids 1-169, produced at Accelegan Inc.); biotin (biotinylated); purchased Accelegan Inc
T2 sequence (P01116 1-169 isoform P01116-2 G12D): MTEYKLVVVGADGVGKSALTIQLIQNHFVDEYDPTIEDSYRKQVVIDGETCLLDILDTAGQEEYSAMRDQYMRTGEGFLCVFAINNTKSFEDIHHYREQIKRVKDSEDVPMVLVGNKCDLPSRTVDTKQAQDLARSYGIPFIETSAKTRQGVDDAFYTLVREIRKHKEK

[3] = tested on: KRas-mediated phosphorylation of ERK in H358 cells; test: Inhibition of KRas-mediated phosphorylation of ERK (Cisbio HTRF pERK), H358 cells; assay type: cell-based; conditions: Homo sapiens; for inhibition at 0.1 µM: NCI-H358, 3 h, single point, 100 nM compound, 3 hrs; for IC50: NCI-H358, HTRF pERK
How it was run: as §1

KRas^G12V = target: T3, KRas^G12V (Homo sapiens, UniProt P01116, G12V); test: KRas binding assay (TR-FRET tracer displacement), KRas G12V
T3 construct: Biotinylated KRas (corresponding to amino acids 1-169, produced at Accelegan Inc.); biotin (biotinylated); purchased Accelegan Inc
T3 sequence (P01116 1-169 isoform P01116-2 G12V): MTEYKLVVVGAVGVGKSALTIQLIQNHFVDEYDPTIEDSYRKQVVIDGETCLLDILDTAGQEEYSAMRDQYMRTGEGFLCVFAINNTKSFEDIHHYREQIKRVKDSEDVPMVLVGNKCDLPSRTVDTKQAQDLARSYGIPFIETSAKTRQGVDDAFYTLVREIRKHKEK

KRas^WT = target: T4, KRas^WT (Homo sapiens, UniProt P01116); test: KRas binding assay (TR-FRET tracer displacement), KRas WT; conditions: for IC50: TR-FRET tracer displacement, KRas WT; for inhibition at 0.01 µM: single point, 10 nM compound, TR-FRET
T4 construct: Biotinylated KRas (corresponding to amino acids 1-169, produced at Accelegan Inc.); biotin (biotinylated); purchased Accelegan Inc
T4 sequence (P01116 1-169 isoform P01116-2): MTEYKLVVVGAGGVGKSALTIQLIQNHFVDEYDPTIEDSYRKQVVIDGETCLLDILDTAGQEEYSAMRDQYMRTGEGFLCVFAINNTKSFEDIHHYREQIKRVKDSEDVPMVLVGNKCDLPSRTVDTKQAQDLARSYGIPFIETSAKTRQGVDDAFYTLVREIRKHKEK

KRas^G12S = target: T5, KRas^G12S (Homo sapiens, UniProt P01116, G12S); test: KRas binding assay (TR-FRET tracer displacement), KRas G12S; conditions: for IC50: TR-FRET tracer displacement, KRas G12S; for inhibition at 0.01 µM: single point, 10 nM compound, TR-FRET
T5 construct: Biotinylated KRas (corresponding to amino acids 1-169, produced at Accelegan Inc.); biotin (biotinylated); purchased Accelegan Inc
T5 sequence (P01116 1-169 isoform P01116-2 G12S): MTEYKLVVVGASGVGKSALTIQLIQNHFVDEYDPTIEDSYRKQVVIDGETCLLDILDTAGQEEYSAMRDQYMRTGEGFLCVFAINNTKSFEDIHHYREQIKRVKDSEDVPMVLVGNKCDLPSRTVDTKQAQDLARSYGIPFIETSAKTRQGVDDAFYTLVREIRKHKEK

KRas^G12R = target: T6, KRas^G12R (Homo sapiens, UniProt P01116, G12R); test: KRas binding assay (TR-FRET tracer displacement), KRas G12R
T6 construct: Biotinylated KRas (corresponding to amino acids 1-169, produced at Accelegan Inc.); biotin (biotinylated); purchased Accelegan Inc
T6 sequence (P01116 1-169 isoform P01116-2 G12R): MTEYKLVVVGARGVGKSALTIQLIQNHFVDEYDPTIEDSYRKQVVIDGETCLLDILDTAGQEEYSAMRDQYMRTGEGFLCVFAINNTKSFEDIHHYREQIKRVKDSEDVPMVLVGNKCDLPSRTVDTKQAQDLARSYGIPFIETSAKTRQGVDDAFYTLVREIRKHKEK

[4] = tested on: KRas-mediated phosphorylation of ERK in A549 cells; test: Inhibition of KRas-mediated phosphorylation of ERK (Cisbio HTRF pERK), A549 cells; assay type: cell-based; conditions: Homo sapiens; for inhibition at 0.1 µM: A549, 3 h, single point, 100 nM compound, 3 hrs; for IC50: HTRF pERK
How it was run: (§2)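 Signal read by HTRF (d2/Cryptate antibody pair, 2 hr room-temperature incubation on lysate). Cells: 6,000 per well, 3 hr compound exposure. Titration: 10 uM highest, 3-fold, 10 points.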

[5] = tested on: KRas-mediated phosphorylation of ERK in PSN1 cells; test: Inhibition of KRas-mediated phosphorylation of ERK (Cisbio HTRF pERK), PSN1 cells; assay type: cell-based; conditions: Homo sapiens
How it was run: (§3)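 Seeding density was 6,000 cells/well; medium RPMI, 10% FBS. Read-out by homogeneous time-resolved fluorescence (pERK) after 4 hours covered at room temperature.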

KRas^G13D = target: T7, KRas^G13D (Homo sapiens, UniProt P01116, G13D); test: KRas binding assay (TR-FRET tracer displacement), KRas G13D; conditions: for IC50: TR-FRET tracer displacement, KRas G13D; for inhibition at 0.01 µM: single point, 10 nM compound, TR-FRET
T7 construct: Biotinylated KRas (corresponding to amino acids 1-169, produced at Accelegan Inc.); biotin (biotinylated); purchased Accelegan Inc
T7 sequence (P01116 1-169 isoform P01116-2 G13D): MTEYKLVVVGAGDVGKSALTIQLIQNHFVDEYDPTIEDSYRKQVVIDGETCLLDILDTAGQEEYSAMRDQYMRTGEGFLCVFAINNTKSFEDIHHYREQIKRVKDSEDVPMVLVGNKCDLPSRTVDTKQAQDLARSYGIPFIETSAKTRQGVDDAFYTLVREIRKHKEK

KRas^G12C = target: T8, KRas^G12C (Homo sapiens, UniProt P01116, G12C); test: KRas binding assay (TR-FRET tracer displacement), KRas G12C; conditions: for IC50: TR-FRET tracer displacement, KRas G12C; for inhibition at 0.01 µM: single point, 10 nM compound, TR-FRET
T8 construct: Biotinylated KRas (corresponding to amino acids 1-169, produced at Accelegan Inc.); biotin (biotinylated); purchased Accelegan Inc
T8 sequence (P01116 1-169 isoform P01116-2 G12C): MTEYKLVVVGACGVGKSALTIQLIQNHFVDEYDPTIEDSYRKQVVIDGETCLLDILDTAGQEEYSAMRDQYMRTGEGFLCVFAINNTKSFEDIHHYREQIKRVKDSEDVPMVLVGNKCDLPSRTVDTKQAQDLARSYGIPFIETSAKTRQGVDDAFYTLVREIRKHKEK

[6] = tested on: KRas-mediated phosphorylation of ERK in HCT116 cells; test: Inhibition of KRas-mediated phosphorylation of ERK (Cisbio HTRF pERK), HCT116 cells; assay type: cell-based; conditions: Homo sapiens; for inhibition at 0.1 µM: HCT-116, 3 h, single point, 100 nM compound, 3 hrs; for IC50: HCT-116, HTRF pERK
How it was run: as §2

[7] = tested on: KRas-mediated phosphorylation of ERK in MKN1 cells; test: Inhibition of KRas-mediated phosphorylation of ERK (Cisbio HTRF pERK), MKN1 cells; assay type: cell-based; conditions: Homo sapiens, MKN-1
How it was run: as §3

[8] = tested on: KRas-mediated phosphorylation of ERK in AsPC-1 cells; test: Inhibition of KRas-mediated phosphorylation of ERK (Cisbio HTRF pERK), AsPC-1 cells; assay type: cell-based; conditions: Homo sapiens, ASPC1, AsPC-1 cells; HTRF pERK
How it was run: as §1

KRas^Q61H = target: T9, KRas^Q61H (Homo sapiens, UniProt P01116, Q61H); test: KRas binding assay (TR-FRET tracer displacement), KRas Q61H; conditions: for IC50: TR-FRET tracer displacement, KRas Q61H; for inhibition at 0.01 µM: single point, 10 nM compound, TR-FRET
T9 construct: Biotinylated KRas (corresponding to amino acids 1-169, produced at Accelegan Inc.); biotin (biotinylated); purchased Accelegan Inc
T9 sequence (P01116 1-169 isoform P01116-2 Q61H): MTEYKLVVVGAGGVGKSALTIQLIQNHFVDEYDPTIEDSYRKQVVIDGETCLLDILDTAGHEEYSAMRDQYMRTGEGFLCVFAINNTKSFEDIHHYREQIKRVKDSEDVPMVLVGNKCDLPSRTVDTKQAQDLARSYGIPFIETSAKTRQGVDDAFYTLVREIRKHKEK

Row | SMILES | IC50 [1] [nM] | inhibition at 0.1 µM [2] [%] | IC50 (KRas^G12A) [nM] | IC50 (KRas^G12D) [nM] | inhibition at 0.1 µM [3] [%] | IC50 (KRas^G12V) [nM] | IC50 (KRas^WT) [nM] | IC50 (KRas^G12S) [nM] | IC50 (KRas^G12R) [nM] | IC50 [5] [nM] | IC50 (KRas^G13D) [nM] | IC50 (KRas^G12C) [nM] | inhibition at 0.1 µM [6] [%] | IC50 [7] [nM] | IC50 [8] [nM] | IC50 (KRas^Q61H) [nM] | IC50 [2] [nM] | IC50 [3] [nM] | IC50 [4] [nM] | IC50 [6] [nM] | further results
1 | Oc1cc(-c2ncc3c(N4C[C@@H]5C[C@H](C4)[C@H](O)C5)nc(OC[C@@]45CCCN4C[C@H](F)C5)nc3c2F)c2ccccc2c1 [Example 737, (1R,5R,6R)-3-(8-fluoro-2-(((2R,7aS)-2-fluorohexahydro-1H-pyrrolizin-7a-yl)methoxy)-7-(3-hydroxynaphthalen-1-yl)pyrido[4,3-d]pyrimidin-4-yl)-3-azabicyclo[3.2.1]octan-6-ol] | 79 | 27 | 10 | 13 | 8 | 5 | 13 | 8 | 7 | 7190 | 12 | 10 | 39 | 9 | 420 | 14 |  |  |  |  | inhibition at 0.01 µM (KRas^G12A): 47%; inhibition at 0.01 µM (KRas^WT): 44%; inhibition at 0.01 µM (KRas^G12S): 60%; inhibition at 0.1 µM [4]: 17%; inhibition at 0.01 µM (KRas^G13D): 53%; inhibition at 0.01 µM (KRas^G12C): 53%; inhibition at 0.01 µM (KRas^Q61H): 46%
2 | O=S1(=O)NCC2(CCCN(c3nc(OCC45CCCN4CCC5)nc4c(F)c(-c5cc(O)cc(Cl)c5C5CC5)ncc34)C2)N1 (stereo not shown) [Example 745, 7-(7-(3-chloro-2-cyclopropyl-5-hydroxyphenyl)-8-fluoro-2-((hexahydro-1H-pyrrolizin-7a-yl)methoxy)pyrido[4,3-d]pyrimidin-4-yl)-2-thia-1,3,7-triazaspiro[4.5]decane 2,2-dioxide] | 701 |  | < 2 | < 2 |  | < 2 | 4 | 5 | < 2 | 4280 | 3 | 3 |  | 511 | 867 | < 2 | 516 | 185 | 815 | 1710 | 
3 | O=S1(=O)NCC2(CCCN(c3nc(OC[C@@]45CCCN4C[C@H](F)C5)nc4c(F)c(-c5c6ccccc6cc6[nH]ncc56)ncc34)C2)N1 (stereo partly drawn) [Example 762, 7-(7-(1H-benzo[f]indazol-4-yl)-8-fluoro-2-(((2R,7aS)-2-fluorohexahydro-1H-pyrrolizin-7a-yl)methoxy)pyrido[4,3-d]pyrimidin-4-yl)-2-thia-1,3,7-triazaspiro[4.5]decane 2,2-dioxide] | 220 | 22 | < 2 | 2 |  | < 2 | < 2 | < 2 | < 2 | 2550 | < 2 | < 2 | 36 | 139 | 704 | < 2 | 327 | 40 | 234 | 134 | 
4 | CCc1cccc2cc3[nH]ncc3c(-c3ncc4c(N5CCCC6(C5)NC(=O)NC6=O)nc(OC[C@@]56CCCN5C[C@H](F)C6)nc4c3F)c12 (stereo partly drawn) [Example 768, 7-(7-(5-ethyl-1H-benzo[f]indazol-4-yl)-8-fluoro-2-(((2R,7aS)-2-fluorohexahydro-1H-pyrrolizin-7a-yl)methoxy)pyrido[4,3-d]pyrimidin-4-yl)-1,3,7-triazaspiro[4.5]decane-2,4-dione] | 275 | 23 | < 2 | 3 | 59 | < 2 | < 2 | < 2 | < 2 | > 10000 | < 2 | < 2 | 8 | 22 | 434 | < 2 | 184 | 38 | 708 | 397 | inhibition at 0.1 µM [4]: 30%
5 | CCc1cccc2cc3[nH]ncc3c(-c3ncc4c(N5CCCC6(CNC(=O)N6)C5)nc(OC[C@@]56CCCN5C[C@H](F)C6)nc4c3F)c12 (stereo partly drawn) [Example 769, 7-(7-(5-ethyl-1H-benzo[f]indazol-4-yl)-8-fluoro-2-(((2R,7aS)-2-fluorohexahydro-1H-pyrrolizin-7a-yl)methoxy)pyrido[4,3-d]pyrimidin-4-yl)-1,3,7-triazaspiro[4.5]decan-2-one] | 567 |  | < 2 | < 2 |  | < 2 | < 2 | < 2 | < 2 | > 10000 | < 2 | < 2 |  | 226 | 510 | < 2 | 661 | 88 | 2190 | 1240 | 
6 | CCc1cccc2cc3[nH]ncc3c(-c3ncc4c(N5CCCn6nc(C(=O)N(C)C)cc6C5)nc(OC[C@@]56CCCN5C[C@H](F)C6)nc4c3F)c12 [Example 770, 5-(7-(5-ethyl-1H-benzo[f]indazol-4-yl)-8-fluoro-2-(((2R,7aS)-2-fluorohexahydro-1H-pyrrolizin-7a-yl)methoxy)pyrido[4,3-d]pyrimidin-4-yl)-N,N-dimethyl-5,6,7,8-tetrahydro-4H-pyrazolo[1,5-a][1,4]diazepine-2-carboxamide] | 654 | -1 | 12 | < 2 | 12 | 3 | 15 | 6 | 7 | > 10000 | 25 | 6 | 10 | 5 | 444 | 21 | 1720 | 258 | 3330 | 3440 | inhibition at 0.1 µM [4]: -1%
7 | Oc1cc(-c2ncc3c(N4CCCC5(CCO5)C4)nc(OC[C@@]45CCCN4C[C@H](F)C5)nc3c2F)c2c(Cl)c(F)ccc2c1 (stereo partly drawn) [Example 773, 5-chloro-6-fluoro-4-(8-fluoro-2-(((2R,7aS)-2-fluorotetrahydro-1H-pyrrolizin-7a(5H)-yl)methoxy)-4-(1-oxa-6-azaspiro[3.5]nonan-6-yl)pyrido[4,3-d]pyrimidin-7-yl)naphthalen-2-ol] | 8 | 96 |  | 3 | 99 | < 2 |  |  | 2 | 2680 |  |  | 90 | 4 | 7 |  | 10 | 3 | 8 | 18 | inhibition at 0.01 µM (KRas^G12A): 86%; inhibition at 0.01 µM (KRas^WT): 90%; inhibition at 0.01 µM (KRas^G12S): 92%; inhibition at 0.1 µM [4]: 97%; inhibition at 0.01 µM (KRas^G13D): 94%; inhibition at 0.01 µM (KRas^G12C): 95%; inhibition at 0.01 µM (KRas^Q61H): 95%
